Results published in patent US20230002359A1, “PESTICIDALLY ACTIVE FUSED BICYCLIC HETEROAROMATIC COMPOUNDS” (priority 2019, published 2023).

Experiments:
Type in all cases: in vivo
[1] = test system: Diabrotica Balteata (Corn Root Worm); test: Example B1: Diabrotica balteata (corn root worm), maize sprouts sprayed, L2 larvae; conditions: 96 h, application rate of 200 ppm, 4 days after infestation, L2 larvae, read-out: control in at least one of the two categories (mortality or growth inhibition)
Procedure, shortened: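 Spray test: maize sprouts on agar, aqueous dilutions of 10′000 ppm DMSO stock; after drying, 6–10 L2 larvae/well. Read-out at 4 d post-infestation: mortality and growth inhibition vs untreated.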

[2] = test system: Chilo suppressalis (Striped Rice Stemborer); test: Example B3: Chilo suppressalis (striped rice stemborer), artificial diet, L2 larvae; conditions: 144 h, application rate of 200 ppm, 6 days after infestation, L2 larvae, read-out: control in at least one of the three categories (mortality, anti-feedant effect, or growth inhibition)
Procedure, shortened: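 Artificial diet in wells was treated with aqueous test solutions diluted from 10'000 ppm DMSO stocks, dried, then infested with 6-8 L2 larvae per well. Mortality, anti-feeding effect and growth inhibition were scored against untreated samples 6 days after infestation; control means any category exceeds the untreated sample.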

[3] = test system: Spodoptera littoralis (Egyptian Cotton Leaf Worm); test: Example B7: Spodoptera littoralis (Egyptian cotton leaf worm), cotton leaf discs sprayed, L1 larvae; conditions: foliar, 72 h, application rate of 200 ppm, 3 days after infestation, L1 larvae, read-out: control in at least one of the three categories (mortality, anti-feedant effect, or growth inhibition)
Procedure, shortened: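 Read-out: mortality, feeding deterrence and growth inhibition, assessed 3 days after infestation relative to untreated samples. Sprayed, dried cotton leaf discs on agar each received five first-instar (L1) larvae; sprays were aqueous solutions prepared from 10′000 ppm DMSO stocks.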

[4] = test system: Plutella xylostella (Diamond Back Moth); test: Example B4: Plutella xylostella (diamond back moth), artificial diet, eggs, 24-well; conditions: 192 h, application rate of 200 ppm, 8 days after infestation, eggs, read-out: control in at least one of the two categories (mortality or growth inhibition)
Protocol: 24-well microtiter plates with artificial diet were treated with aqueous test solutions prepared from 10′000 ppm DMSO stock solutions by pipetting. After drying, Plutella eggs were pipetted through a plastic stencil onto a gel blotting paper and the plate was closed with it. The samples were assessed for mortality and growth inhibition in comparison to untreated samples 8 days after infestation.

CC(c1nccnc1-c1ccc(OC(F)F)cn1)N(C)c1ncnc2c(C(F)(F)F)cc(Cl)cc12 (centres unmarked) [P.123, 6-chloro-N-[1-[3-[5-(difluoromethoxy)-2-pyridyl]pyrazin-2-yl]ethyl]-N-methyl-8-(trifluoromethyl)quinazolin-4-amine]
≥ 80%: percent control (mortality or growth inhibition) at 200 ppm [1] | percent control (mortality, anti-feedant effect or growth inhibition) at 200 ppm [2] | percent control (mortality, anti-feedant effect or growth inhibition) at 200 ppm [3] | percent control (mortality or growth inhibition) at 200 ppm [4]

CC(Nc1ncnc2c(Br)cc(OC(F)(F)F)cc12)c1nccnc1-n1nccn1 (centres unmarked) [P.13, 8-bromo-N-[1-[3-(triazol-2-yl)pyrazin-2-yl]ethyl]-6-(trifluoromethoxy)quina-zolin-4-amine]
≥ 80%: percent control (mortality or growth inhibition) at 200 ppm [1] | percent control (mortality, anti-feedant effect or growth inhibition) at 200 ppm [2] | percent control (mortality, anti-feedant effect or growth inhibition) at 200 ppm [3] | percent control (mortality or growth inhibition) at 200 ppm [4]

CC(c1nccnc1-n1nccn1)N(C)c1ncnc2c(C(F)(F)F)cc(Cl)cc12 (centres unmarked) [P.129, 6-chloro-N-methyl-N-[1-[3-(triazol-2-yl)pyrazin-2-yl]ethyl]-8-(trifluoromethyl)quinazolin-4-amine]
≥ 80%: percent control (mortality or growth inhibition) at 200 ppm [1] | percent control (mortality, anti-feedant effect or growth inhibition) at 200 ppm [2] | percent control (mortality, anti-feedant effect or growth inhibition) at 200 ppm [3] | percent control (mortality or growth inhibition) at 200 ppm [4]

CC(c1nccnc1-c1ccc(C#N)cn1)N(C)c1ncnc2c(Br)cc(C(F)(F)F)cc12 (centres unmarked) [P.124, 6-[3-[1-[[8-bromo-6-(trifluoromethyl)quinazolin-4-yl]-methyl-amino]ethyl]pyrazin-2-yl]pyridine-3-carbonitrile]
≥ 80%: percent control (mortality or growth inhibition) at 200 ppm [1] | percent control (mortality, anti-feedant effect or growth inhibition) at 200 ppm [2] | percent control (mortality, anti-feedant effect or growth inhibition) at 200 ppm [3] | percent control (mortality or growth inhibition) at 200 ppm [4]

CC(c1ncnn1-c1ccc(C#N)cn1)N(C#N)c1ncnc2c(C(F)(F)F)cc(C(F)(F)F)cc12 (centres unmarked) [P.9, [6,8-bis(trifluoromethyl)quina-zolin-4-yl]-[1-[2-(5-cyano-2-pyridyl)-1,2,4-triazol-3-yl]ethyl]cyanamide]
≥ 80%: percent control (mortality or growth inhibition) at 200 ppm [1] | percent control (mortality, anti-feedant effect or growth inhibition) at 200 ppm [2] | percent control (mortality, anti-feedant effect or growth inhibition) at 200 ppm [3] | percent control (mortality or growth inhibition) at 200 ppm [4]

CC(Nc1ncnc2c(C(F)(F)F)cc(Br)cc12)c1nccnc1-n1nccn1 (centres unmarked) [P.33, 6-bromo-N-[1-[3-(triazol-2-yl)pyrazin-2-yl]ethyl]-8-(trifluoromethyl)quinazolin-4-amine]
≥ 80%: percent control (mortality or growth inhibition) at 200 ppm [1] | percent control (mortality, anti-feedant effect or growth inhibition) at 200 ppm [2] | percent control (mortality, anti-feedant effect or growth inhibition) at 200 ppm [3] | percent control (mortality or growth inhibition) at 200 ppm [4]

C[C@H](Nc1ccnc2c(C(F)(F)F)cc(Br)cc12)c1ncnn1-c1ncccn1 [P.253, 6-bromo-N-[(1S)-1-(2-pyrimidin-2-yl-1,2,4-triazol-3-yl)ethyl]-8-(trifluoromethyl)quinolin-4-amine]
≥ 80%: percent control (mortality or growth inhibition) at 200 ppm [1] | percent control (mortality, anti-feedant effect or growth inhibition) at 200 ppm [2] | percent control (mortality, anti-feedant effect or growth inhibition) at 200 ppm [3] | percent control (mortality or growth inhibition) at 200 ppm [4]

CC(c1nccnc1-c1ncccn1)N(C)c1ccnc2c(C(F)(F)F)cc(C(F)(F)F)cc12 (centres unmarked) [P.249, N-methyl-N-[1-(3-pyrimidin-2-ylpyrazin-2-yl)ethyl]-6,8-bis(trifluoromethyl)quino-lin-4-amine]
≥ 80%: percent control (mortality or growth inhibition) at 200 ppm [1] | percent control (mortality, anti-feedant effect or growth inhibition) at 200 ppm [2] | percent control (mortality, anti-feedant effect or growth inhibition) at 200 ppm [3] | percent control (mortality or growth inhibition) at 200 ppm [4]

CC(c1ncnn1-c1ccc(OC(F)F)cn1)N(C)c1ncnc2c(C(F)(F)F)cc(C(F)(F)F)cc12 (centres unmarked) [P.192]
≥ 80%: percent control (mortality or growth inhibition) at 200 ppm [1] | percent control (mortality, anti-feedant effect or growth inhibition) at 200 ppm [2] | percent control (mortality, anti-feedant effect or growth inhibition) at 200 ppm [3] | percent control (mortality or growth inhibition) at 200 ppm [4]

CC(c1nccnc1-c1ccc(OC(F)F)cn1)N(C)c1ncnc2c(C(F)(F)F)cc(C(F)(F)F)cc12 (centres unmarked) [P.110, N-[1-[3-[5-(difluoromethoxy)-2-pyridyl]pyrazin-2-yl]ethyl]-N-methyl-6,8-bis(trifluoromethyl)quina-zolin-4-amine]
≥ 80%: percent control (mortality or growth inhibition) at 200 ppm [1] | percent control (mortality, anti-feedant effect or growth inhibition) at 200 ppm [2] | percent control (mortality, anti-feedant effect or growth inhibition) at 200 ppm [3] | percent control (mortality or growth inhibition) at 200 ppm [4]

C[C@H](Nc1ccnc2c(Br)cc(C(F)(F)F)cc12)c1ncnn1-c1ncccn1 [P.209, 8-bromo-N-[(1S)-1-(2-pyrimidin-2-yl-1,2,4-triazol-3-yl)ethyl]-6-(trifluoromethyl)quinolin-4-amine]
≥ 80%: percent control (mortality or growth inhibition) at 200 ppm [1] | percent control (mortality, anti-feedant effect or growth inhibition) at 200 ppm [2] | percent control (mortality, anti-feedant effect or growth inhibition) at 200 ppm [3] | percent control (mortality or growth inhibition) at 200 ppm [4]

CC(c1nccnc1-n1nccn1)N(C)c1ncnc2c(C(F)(F)F)cc(Br)cc12 (centres unmarked) [P.105, 6-bromo-N-methyl-N-[1-[3-(triazol-2-yl)pyrazin-2-yl]ethyl]-8-(trifluoromethyl)quinazolin-4-amine]
≥ 80%: percent control (mortality or growth inhibition) at 200 ppm [1] | percent control (mortality, anti-feedant effect or growth inhibition) at 200 ppm [2] | percent control (mortality, anti-feedant effect or growth inhibition) at 200 ppm [3] | percent control (mortality or growth inhibition) at 200 ppm [4]

CC(c1ncnn1-c1ccc(Br)cn1)N(C)c1ncnc2c(C(F)(F)F)cc(Cl)cc12 (centres unmarked) [P.238, N-[1-[2-(5-bromo-2-pyridyl)-1,2,4-triazol-3-yl]ethyl]-6-chloro-N-methyl-8-(trifluoromethyl)quinazolin-4-amine]
≥ 80%: percent control (mortality or growth inhibition) at 200 ppm [1] | percent control (mortality, anti-feedant effect or growth inhibition) at 200 ppm [2] | percent control (mortality, anti-feedant effect or growth inhibition) at 200 ppm [3] | percent control (mortality or growth inhibition) at 200 ppm [4]

C[C@H](Nc1ncnc2c(C(F)(F)F)cc(I)cc12)c1ncnn1-c1ccc(C#N)cn1 [P.218, 6-[5-[(1S)-1-[[6-iodo-8-(trifluoromethyl)quinazolin-4-yl]amino]ethyl]-1,2,4-triazol-1-yl]pyridine-3-carbonitirle]
≥ 80%: percent control (mortality or growth inhibition) at 200 ppm [1] | percent control (mortality, anti-feedant effect or growth inhibition) at 200 ppm [2] | percent control (mortality, anti-feedant effect or growth inhibition) at 200 ppm [3] | percent control (mortality or growth inhibition) at 200 ppm [4]

CC(Nc1ncnc2c(Cl)cc(C(F)(F)F)cc12)c1nccnc1-c1ncccn1 (centres unmarked) [P.101, 8-chloro-N-[1-(3-pyrimidin-2-ylpyrazin-2-yl)ethyl]-6-(trifluoromethyl)quinazolin-4-amine]
≥ 80%: percent control (mortality or growth inhibition) at 200 ppm [1] | percent control (mortality, anti-feedant effect or growth inhibition) at 200 ppm [2] | percent control (mortality, anti-feedant effect or growth inhibition) at 200 ppm [3] | percent control (mortality or growth inhibition) at 200 ppm [4]

CC(Nc1ncnc2c(C(F)(F)F)cc(Cl)cc12)c1nccnc1-c1ccc(OC(F)F)cn1 (centres unmarked) [P.120, 6-chloro-N-[1-[3-[5-(difluoromethoxy)-2-pyridyl]pyrazin-2-yl]ethyl]-8-(trifluoromethyl)quinazolin-4-amine]
≥ 80%: percent control (mortality or growth inhibition) at 200 ppm [1] | percent control (mortality, anti-feedant effect or growth inhibition) at 200 ppm [2] | percent control (mortality, anti-feedant effect or growth inhibition) at 200 ppm [3] | percent control (mortality or growth inhibition) at 200 ppm [4]

C[C@H](Nc1ccnc2c(C(F)(F)F)cc(C(F)(F)F)cc12)c1ncnn1-c1ccc(C#N)cn1 [P.251, 6-[5-[(1S)-1-[[6,8-bis(trifluoromethyl)-4-quinolyl]amino]ethyl]-1,2,4-triazol-1-yl]pyridine-3-carbonitrile]
≥ 80%: percent control (mortality or growth inhibition) at 200 ppm [1] | percent control (mortality, anti-feedant effect or growth inhibition) at 200 ppm [2] | percent control (mortality, anti-feedant effect or growth inhibition) at 200 ppm [3] | percent control (mortality or growth inhibition) at 200 ppm [4]

CC(c1ncnn1-c1ccc(F)cn1)N(C)c1ncnc2c(C(F)(F)F)cc(C(F)(F)F)cc12 (centres unmarked) [P.189, N-[1-[2-(5-fluoro-2-pyridyl)-1,2,4-triazol-3-yl]ethyl]-N-methyl-6,8-bis(trifluoromethyl)quina-zolin-4-amine]
≥ 80%: percent control (mortality or growth inhibition) at 200 ppm [1] | percent control (mortality, anti-feedant effect or growth inhibition) at 200 ppm [2] | percent control (mortality, anti-feedant effect or growth inhibition) at 200 ppm [3] | percent control (mortality or growth inhibition) at 200 ppm [4]

CC(c1ncnn1-c1ccc(Br)cn1)N(C)c1ncnc2c(Br)cc(C(F)(F)F)cc12 (centres unmarked) [P.239, 8-bromo-N-[1-[2-(5-bromo-2-pyridyl)-1,2,4-triazol-3-yl]ethyl]-N-methyl-6-(trifluoromethyl)quinazolin-4-amine]
≥ 80%: percent control (mortality or growth inhibition) at 200 ppm [1] | percent control (mortality, anti-feedant effect or growth inhibition) at 200 ppm [2] | percent control (mortality, anti-feedant effect or growth inhibition) at 200 ppm [3] | percent control (mortality or growth inhibition) at 200 ppm [4]

CC(Nc1ncnc2c(Br)cc(Br)cc12)c1ncnn1-c1ccc(C#N)cn1 (centres unmarked) [P.30, 6-[5-[1-[(6,8-dibromoquinazolin-4-yl)amino]ethyl]-1,2,4-triazol-1-yl]pyridine-3-carbonitrile]
≥ 80%: percent control (mortality or growth inhibition) at 200 ppm [1] | percent control (mortality, anti-feedant effect or growth inhibition) at 200 ppm [2] | percent control (mortality, anti-feedant effect or growth inhibition) at 200 ppm [3] | percent control (mortality or growth inhibition) at 200 ppm [4]
